We go through 26 compounds from patent publication US20100160304A1, “AROMATIC SULFONE COMPOUND AS ALDOSTERONE RECEPTOR MODULATOR” (Dainippon Sumitomo Pharma Co., Ltd, priority 2005, published 2010).

In one assay the target is T1, aldosterone receptor MR (Rattus norvegicus, UniProt P22199).
T1 construct: the resultant supernatant was being a soluble fraction of the kidney; from tissue; host or cells: kidney of adrenalectomized rat, 105,000 G supernatant (soluble fraction)
T1 sequence (P22199 1-981): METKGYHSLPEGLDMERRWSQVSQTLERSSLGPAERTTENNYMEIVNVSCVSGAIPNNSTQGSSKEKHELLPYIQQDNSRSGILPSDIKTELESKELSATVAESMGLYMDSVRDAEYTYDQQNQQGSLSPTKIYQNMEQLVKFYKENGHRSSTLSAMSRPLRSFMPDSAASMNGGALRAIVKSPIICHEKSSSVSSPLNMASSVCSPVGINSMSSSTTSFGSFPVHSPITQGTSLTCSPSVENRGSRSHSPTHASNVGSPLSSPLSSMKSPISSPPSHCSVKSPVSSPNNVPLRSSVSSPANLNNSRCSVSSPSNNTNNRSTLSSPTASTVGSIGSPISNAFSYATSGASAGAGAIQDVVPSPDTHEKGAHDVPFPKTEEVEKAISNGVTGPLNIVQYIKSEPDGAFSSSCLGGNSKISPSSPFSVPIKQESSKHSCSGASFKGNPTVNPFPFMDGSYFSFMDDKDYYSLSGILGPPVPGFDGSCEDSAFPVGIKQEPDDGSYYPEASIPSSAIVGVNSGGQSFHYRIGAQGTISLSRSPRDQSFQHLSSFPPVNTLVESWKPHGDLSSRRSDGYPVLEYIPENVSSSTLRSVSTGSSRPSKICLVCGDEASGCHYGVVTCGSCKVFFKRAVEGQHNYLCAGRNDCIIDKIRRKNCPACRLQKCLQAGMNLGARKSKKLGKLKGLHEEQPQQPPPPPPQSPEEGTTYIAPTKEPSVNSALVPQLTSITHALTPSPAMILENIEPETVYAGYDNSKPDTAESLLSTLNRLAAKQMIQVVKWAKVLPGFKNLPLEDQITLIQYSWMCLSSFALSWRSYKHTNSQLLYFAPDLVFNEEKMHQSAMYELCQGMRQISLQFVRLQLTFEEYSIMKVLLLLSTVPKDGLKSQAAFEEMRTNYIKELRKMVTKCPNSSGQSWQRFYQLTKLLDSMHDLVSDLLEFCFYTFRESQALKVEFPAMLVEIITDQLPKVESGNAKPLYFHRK
Description: Aldosterone receptor binding assay ([3H]aldosterone, soluble fraction of rat kidney). Conditions: [3H]aldosterone 2 nM, 2 μM RU-486, 4° C. about 18 hours. As for the experimental part:
Flank incision (both sides) was subjected to a rat to adrenalectomize. After suturing the rat's incised parts, the rat was again returned to a breeding cage and bred for a duration of 3 to 5 days to collect a kidney from the rat; the collected kidney was homogenized with 0.1 M Tris-HCl, 0.25M sucrose, 0.1M Na2MoO4, 2 mM DTT buffer solution (pH 7.4), the resultant solution was subjected to centrifugal separation at 105,000 G for 30 minutes, and the resultant supernatant was being a soluble fraction of the kidney.
Thereafter, the reactant solution was added with 50 μL of 5% dextran coated charcoal and mixed, and then centrifugated at 3,000 G for 5 minutes. Subsequently, 100 μL of the supernatant was collected and mixed with 3.5 mL of liquid scintillator ACS-II (Amersham) to measure a radioactivity with a liquid scintillation counter (manufactured by Packard, Tri Carb 2700TR). A non-specific binding was determined by adding 2 μM of aldosterone to the reactant solution.
Binding inhibiting rate (%)=10−[(B−N)/(B0−N)]×100
B: Binding amount of the marker ligand in the co-presence of the tested substance and marker ligand,
B0: Binding amount of the marker ligand in the absence of the tested substance, and
N: Binding amount of the marker ligand in the presence of excess aldosterone (2 μM).

In assay [1] the test system is decrease of Na/K ratio in urine induced with aldosterone. The assay can be described thus: Antagonistic action (in vivo antagonist activity) against decrease of Na/K ratio in urine induced with aldosterone, adrenalectomized rat. Conditions: oral 10 and 30 mg/kg, 30 minutes before subcutaneous aldosterone, urine collection 4 hours (FIG. 1).
Description: After anesthetizing a rat by administering 50 mg/kg of sodium pentobarbital in its abdominal cavity and disinfecting its skin with the Isodine diluted solution, the rat was incised. After adrenalectomy and confirming the hemostasis, the muscular layer and skin were sutured in this order and then the sutured part was disinfected with the Isodine diluted solution. After breeding 3 days or more, a rat showing good progress was subjected to the following test.
It was fasted from the day preceding an examination, put into a metabolic cage at the day of the examination, and then subjected to a urine collection for 4 hours. When a substance to be tested was administered orally, it was administered in an amount of 5 ml/kg with 0.5% methylcellulose as a solvent. The aldosterone was dissolved with 1% ethanol/physiological saline and administered subcutaneously. The substance to be tested was administered 30 minutes before administering aldosterone. In order to stabilize and sufficiently secure the amount of the urine, physiological saline was administered orally in an amount of 20 ml/kg at the time of administering aldosterone. The colleted urine, after measuring its volume, was subjected to a measurement of electrolyte (sodium: Na and potassium: K) concentration in the urine with a biochemistry autoanalyzer (manufactured by Beckman, Synchron CX3 system Delta).

Each structure is given as a SMILES string.

Regarding `Cc1ccc(S(=O)(=O)Oc2ccc(NS(C)(=O)=O)cc2F)cc1` [Example 110, 2-Fluoro-4-[(methylsulfonyl)amino]phenyl 4-methylbenzenesulfonate], the IC50 at aldosterone receptor MR was 9400 nM.
The compound `CC1(C)OC(=S)Nc2ncc(CS(=O)(=O)c3cccs3)cc21` [Example 37, 4,4-Dimethyl-6-[(2-thienylsulfonyl)methyl]-1,4-dihydro-2H-pyrido[2,3-d][1,3]oxazin-2-thione] gave an IC50 at aldosterone receptor MR of 960 nM.
As to `Cc1ccc(S(=O)(=O)Cc2ccc3c(c2)CCC(C(F)(F)F)N3)cc1` (stereo not drawn) [Example 104, 6-{[(4-Methylphenyl)sulfonyl]methyl}-2-(trifluoromethyl)-1,2,3,4-tetrahydroquinoline], at aldosterone receptor MR, the IC50 was 1800 nM.
Same read-out and setting: under `CC1=CC(C)(C)Nc2ccc(NS(=O)(=O)c3ccc4ccccc4c3)cc21` [Example 61, N-(2,2,4-Trimethyl-1,2-dihydroquinolin-6-yl)naphthalene-2-sulfonamide] stands 520 nM.
Still for that read-out and setting: under `CC1(C)OC(=S)Nc2ncc(NS(=O)(=O)c3cccs3)cc21` [Example 41, N-(4,4-Dimethyl-2-thioxo-1,4-dihydro-2H-pyrido[2,3-d][1,3]oxazin-6-yl)thiophene-2-sulfonamide] stands 5500 nM; under `CC(=O)N(c1ccc2c(c1)C(C)=CC(C)(C)N2)S(=O)(=O)c1ccc(C)cc1` [Example 86, N-[(4-Methylphenyl)sulfonyl]-N-(2,2,4-trimethyl-1,2-dihydroquinolin-6-yl)acetamide], 270 nM; under `CC(=O)N(c1ccc2c(c1)C(C)=CC(C)(C)N2)S(=O)(=O)c1ccc(Cl)s1` [Example 89, N-[(5-Chloro-2-thienyl)sulfonyl]-N-(2,2,4-trimethyl-1,2-dihydroquinolin-6-yl)acetamide], 300 nM.
On aldosterone receptor MR, `CC1=CC(C)(C)Nc2ccc(OS(=O)(=O)c3ccc4ccccc4c3)cc21` [Example 52, 2,2,4-Trimethyl-1,2-dihydroquinolin-6-yl naphthalene-2-sulfonate] showed an IC50 of 730 nM.
Same read-out and setting: the figure for `CC1=CC(C)(C)Nc2ccc(N(C)S(=O)(=O)c3cccs3)cc21` [Example 85, N-Methyl-N-(2,2,4-trimethyl-1,2-dihydroquinolin-6-yl)thiophene-2-sulfonamide] is 150 nM.
Consider `CC1(C)OC(=S)Nc2ccc(OS(=O)(=O)c3cccs3)cc21` [Example 12, 4,4-Dimethyl-2-thioxo-1,4-dihydro-2H-3,1-benzoxazin-6-yl thiophene-2-sulfonate], for which the IC50 at aldosterone receptor MR stood at 83 nM.
`CC1=CC(C)(C)Nc2ccc(NS(=O)(=O)c3ccccc3C)cc21` [Example 78, 2-Methyl-N-(2,2,4-trimethyl-1,2-dihydroquinolin-6-yl)benzenesulfonamide] gave an IC50 on aldosterone receptor MR of 900 nM.
`CC1=CC(C)(C)Nc2ccc(NS(=O)(=O)c3ccsc3)cc21` [Example 74, N-(2,2,4-Trimethyl-1,2-dihydroquinolin-6-yl)thiophene-3-sulfonamide]: on aldosterone receptor MR, the IC50 came out at 120 nM.
In the case of `CC1(C)OC(=S)Nc2ccc(NS(=O)(=O)c3cccs3)cc21` [Example 24, N-(4,4-Dimethyl-2-thioxo-1,4-dihydro-2H-3,1-benzoxazin-6-yl)thiophene-2-sulfonamide], the “inhibition of the decrease of the urine Na/K ratio induced with aldosterone” value in assay [1] is “dose-dependently inhibited the decrease of the urine Na/K ratio”. In addition, the IC50 on aldosterone receptor MR amounted to 13 nM.
As to `Cc1ccc(S(=O)(=O)Cc2ccc3c(c2)C(C)(C)OC(=S)N3)cc1` [Example 16, 4,4-Dimethyl-6-{[(4-methylphenyl)sulfonyl]methyl}-1,4-dihydro-2H-3,1-benzoxazin-2-thione], the IC50 at aldosterone receptor MR worked out at 7 nM.
On aldosterone receptor MR, `Cc1ccc(S(=O)(=O)N(C)c2ccc3c(c2)C(C)CC(C)(C)N3)cc1` (stereo not drawn) [Example 100, N,4-Dimethyl-N-(2,2,4-trimethyl-1,2,3,4-tetrahydroquinolin-6-yl)benzenesulfonamide] registered an IC50 of 2100 nM.
Compound `CC1=CC(C)(C)Nc2ccc(NS(=O)(=O)c3ccc(C)cc3)cc21` [Example 60, 4-Methyl-N-(2,2,4-trimethyl-1,2-dihydroquinolin-6-yl)benzenesulfonamide] returned an IC50 on aldosterone receptor MR of 300 nM.
Still for that read-out and setting: the figure for `O=S(=O)(Nc1ccc2c(c1)C(c1ccccc1)OC(=S)N2)c1cccs1` (stereo not drawn) [Example 44, N-(4-Phenyl-2-thioxo-1,4-dihydro-2H-3,1-benzoxazin-6-yl)thiophene-2-sulfonamide] is 860 nM; for `CC1(C)OC(=S)Nc2ncc(CS(=O)(=O)c3cccnc3)cc21` [Example 38, 4,4-Dimethyl-6-[(pyridine-3-ylsulfonyl)methyl]-1,4-dihydro-2H-pyrido[2,3-d][1,3]oxazin-2-thione] it is 6600 nM; for `Cc1ccc(S(=O)(=O)Nc2ccc3c(c2)C(C)CC(C)(C)N3)cc1` (stereo not drawn) [Example 97, 4-Methyl-N-(2,2,4-trimethyl-1,2,3,4-tetrahydroquinolin-6-yl)benzenesulfonamide] it is 2200 nM.
At aldosterone receptor MR, `CC1CC(C)(C)Nc2ccc(NS(=O)(=O)c3cccs3)cc21` (stereo not drawn) [Example 98, N-(2,2,4-Trimethyl-1,2,3,4-tetrahydroquinolin-6-yl)thiophene-2-sulfonamide] yielded an IC50 of 94 nM.
At aldosterone receptor MR, `CC1=CC(C)(C)Nc2ccc(NS(=O)(=O)c3ccc(Cl)s3)cc21` [Example 66, 5-Chloro-N-(2,2,4-trimethyl-1,2-dihydroquinolin-6-yl)thiophene-2-sulfonamide] came in with an IC50 of 1300 nM.
Same read-out and setting: under `Cc1ccc(S(=O)(=O)Cc2ccc3c(c2)C(C)CC(C)(C)N3)cc1` (stereo not drawn) [Example 96, 2,2,4-Trimethyl-6-{[(4-methylphenyl)sulfonyl]methyl}-1,2,3,4-tetrahydroquinoline] stands 500 nM; under `COC(=O)C(=O)N(c1ccc2c(c1)C(C)=CC(C)(C)N2)S(=O)(=O)c1cccs1` [Example 91, Methyl Oxo[(2-thienylsulfonyl)-(2,2,4-trimethyl-1,2-dihydroquinolin-6-yl)amino]acetate], 100 nM; under `CC1=CC(C)(C)Nc2cc(F)c(OS(=O)(=O)c3ccc(C)cc3)cc21` [Example 54, 7-Fluoro-2,2,4-trimethyl-1,2-dihydroquinolin-6-yl 4-methylbenzenesulfonate], 200 nM.
On the same count and under the same terms, under `CC1=CC(C)(C)Nc2ccc(N(C)S(=O)(=O)c3ccc(C)cc3)cc21` [Example 81, N,4-Dimethyl-N-(2,2,4-trimethyl-1,2-dihydroquinolin-6-yl)benzenesulfonamide] stands 500 nM.
On the same count and under the same terms, under `C=CC1(C)OC(=S)Nc2ccc(NS(=O)(=O)c3cccs3)cc21` (stereo not drawn) [Example 50, N-(4-Methyl-2-thioxo-4-vinyl-1,4-dihydro-2H-3,1-benzoxazin-6-yl)thiophene-2-sulfonamide] stands 11 nM.

What is called IC50 is the concentration at which inhibition is half-maximal. A high value points to a need for much substance.
